{
  "source": "patent US12428389B2",
  "about": "“Diarylamide compound and application thereof” (Sunshine Lake Pharma Co., Ltd., priority 2019, dated 2025)",
  "key": {"MDCK cells": {"test_system": "MDCK cells", "test": "MDCK cytotoxicity test, CCK-8 kit", "type": "cell-based", "settings": "7.8-125 μM, cultured for 12 h", "description": "In order to study the cytotoxicity of the compound of the present invention, an MDCK cytotoxicity test was completed by using a CCK-8 kit. […]. In this study, a CCK-8 kit was used to detect the cytotoxicity of compounds: MDCK cell suspension in logarithmic growth phase was inoculated into a 96-well culture plate (1×10^4 cells/well/100 μL), and 100 μL of DMEM culture solution containing 10% fetal bovine serum, 100 U/mL penicillin and 100 μg/mL streptomycin was administrated to each well, then cultured in a 37° C., 5% CO2 incubator. When the cells were 70%-80% confluent, serum starvation was performed for 12 h for synchronization. […]. At the same time, blank wells (medium, CCK-8) and control wells (cells, dissolving medium of the same concentration compound, medium, CCK-8) were set up, 3 replicate wells per group. Cell survival rate was calculated: cell survival rate (%)=[(ODexperimental well−ODblank well)/(ODcontrol well−ODblank well)]×100%, wherein OD refers to the absorbance value of each well."}, "SD rats [1]": {"test_system": "SD rats", "test": "single subcutaneous injection, diuretic effect in rats (metabolic cage)", "type": "in vivo", "settings": "100 mg/kg subcutaneous", "description": "The urine collection system was siliconized in advance to prevent urine loss. […] Solvent control: corn oil. The weight of urine was measured by the weight loss method and converted to volume (1 g≈1 mL). […] The peak of the diuretic effect was at 4 h after administration, and the duration of the diuretic effect was about 6-8 h. The results were shown as means±SEM, n=6. The urine osmotic pressure of the collected urine was measured by using a freezing point osmometer. […] The peak of action was at 4 h after administration, and returned to the level before administration at 6-8 h after administration. The results were shown as means±SEM, n=6. The urine samples were detected by using a urea kit for the level of urea in the urine. According to the previously measured urine volume, urine osmotic pressure and urea excretion per 2 h, the excretion of non-urea solutes per 2 h was calculated. […] The results were shown as means±SEM, n=6."}, "SD rats [2]": {"test_system": "SD rats", "test": "toxicity after 7 days intragastric administration in rats (organ indexes, serum, kidney histology)", "protocol": "Normal SD rats, 8 weeks old, male, 8 rats in each group were taken. The animals were placed in a metabolic cage and acclimatized for three days prior to the experiment, on a standard diet with free access to water. […] The administration was continued for 7 days. On the 7th day, the rats were anesthetized with sodium pentobarbital, and the liver and kidney were taken, weighed, and the kidney weight index and liver weight index were calculated. […] The kidney tissue was immersed in a fixative solution (4% paraformaldehyde), embedded with a paraffin embedding machine, and then cut into 6 μm thick paraffin sections by a paraffin microtome. […] The sections were observed under an optical microscope. The inner medulla, outer medulla, and cortex of each kidney were selected for comparative observation by an optical microscope. […] Blood was collected by cardiac puncture, then centrifuged to obtain serum, which was used to measure serum indexes by instruments."}, "SD rats [3]": {"test_system": "SD rats", "test": "single intragastric administration, diuretic effect in rats (metabolic cage)", "type": "in vivo", "settings": "100 mg/kg, single (FIG. 5: intragastric)", "description": "The urine collection system was siliconized in advance to prevent urine loss. […] The weight of urine was measured by the weight loss method and converted to volume (1 g≈1 mL). […] Urine volume began to rise at 2 h after administration, the peak of diuretic effect was at 4 h after administration, and the duration of diuretic effect was about 6-8 h. The results were shown as means±SEM, n=6. The urine osmotic pressure of the collected urine was measured by using a freezing point osmometer. […] The peak of action was at 4 h after administration, and recovered to the level before administration at 6-8 h after administration. The results were shown as means±SEM, n=6. Urine samples were detected by using a urea kit for the level of urea in the urine. According to the previously measured urine volume, urine osmotic pressure and urea excretion per 2 h, the excretion of non-urea solutes per 2 h was calculated. […] C57BL/6J mice, male, 6 in each group, weighing 20˜22 g, were taken. […] The urine collection system was siliconized in advance to prevent urine loss. […] Solvent control: CMC-Na. The weight of urine was measured by the weight loss method and converted to volume (1 g≈1 mL). […] The results were shown as means±SEM, n=6. The urine osmotic pressure of the collected urine was measured by using a freezing point osmometer. […] The results were shown as means±SEM, n=6. The urine samples were detected by using a urea kit for the level of urea in the urine. According to the previously measured urine volume, urine osmotic pressure and urea excretion per 2 h, the excretion of non-urea solutes per 2 h was calculated. […] The results were shown as means ±SEM, n=6."}},
  "data": [
    {"molecule": "CC(=O)Nc1ccc(NC(=O)c2ccc([N+](=O)[O-])o2)cc1", "note": "[Example 3, N-(4-acetamidophenyl)-5-nitrofuran-2-carboxamide]", "values": [
      {"measurement": "cytotoxic effect (cell survival rate)", "setting": "MDCK cells", "result": "no significant cytotoxic effect"},
      {"measurement": "duration of the diuretic effect", "setting": "SD rats [1]", "result": "6 to 8", "unit": "h"},
      {"measurement": "peak of action on urine osmotic pressure, time after administration", "setting": "SD rats [1]", "result": 4, "unit": "h"},
      {"measurement": "peak of the diuretic effect, time after administration", "setting": "SD rats [1]", "result": 4, "unit": "h"},
      {"measurement": "urine osmotic pressure returned to the level before administration, time after administration", "setting": "SD rats [1]", "result": "6 to 8", "unit": "h"},
      {"measurement": "serum urea level", "setting": "SD rats [2]; 100 mg/kg intragastric every 8 h, vs control", "result": "no significant statistical difference"},
      {"measurement": "inner medullary tubules, histology", "setting": "SD rats [2]; HE sections", "result": "tubule swelling appeared in the inner medullary"},
      {"measurement": "histological morphology of the kidney", "setting": "SD rats [2]; HE sections, inner medulla, outer medulla, cortex", "result": "did not significantly affect"},
      {"measurement": "Serum chlorine", "setting": "SD rats [2]; n = 8", "result": "101.7 ± 1.3", "unit": "mM"},
      {"measurement": "Serum cholesterol", "setting": "SD rats [2]; n = 8", "result": "1.59 ± 0.06", "unit": "mM"},
      {"measurement": "Serum glucose", "setting": "SD rats [2]; n = 8", "result": "9.4 ± 0.3", "unit": "mM"},
      {"measurement": "Serum high-density lipoprotein", "setting": "SD rats [2]; n = 8", "result": "0.71 ± 0.03", "unit": "mM"},
      {"measurement": "Serum low-density lipoprotein", "setting": "SD rats [2]; n = 8", "result": "0.34 ± 0.03", "unit": "mM"},
      {"measurement": "Serum potassium", "setting": "SD rats [2]; n = 8", "result": "4.8 ± 0.2", "unit": "mM"},
      {"measurement": "Serum sodium", "setting": "SD rats [2]; n = 8", "result": "147.3 ± 2.0", "unit": "mM"},
      {"measurement": "Serum triglyceride", "setting": "SD rats [2]; n = 8", "result": "0.68 ± 0.07", "unit": "mM"},
      {"measurement": "duration of diuretic effect", "setting": "SD rats [3]", "result": "6 to 8", "unit": "h"},
      {"measurement": "peak of action on urine osmotic pressure, time after administration", "setting": "SD rats [3]", "result": 4, "unit": "h"},
      {"measurement": "peak of diuretic effect, time after administration", "setting": "SD rats [3]", "result": 4, "unit": "h"},
      {"measurement": "urine osmotic pressure recovered to the level before administration, time after administration", "setting": "SD rats [3]", "result": "6 to 8", "unit": "h"},
      {"measurement": "urine volume began to rise, time after administration", "setting": "SD rats [3]", "result": 2, "unit": "h"}
    ]}
  ]
}
